This is an account of results in patent US20240383908A1, “SYNTHESIS AND APPLICATION OF PHOSPHATASE DEGRADER” (HINOVA PHARMACEUTICALS INC., priority 2021, published 2024).

In the experiment the target is T1, SHP2 protein (Homo sapiens, UniProt Q06124).
T1 sequence (Q06124 1-593): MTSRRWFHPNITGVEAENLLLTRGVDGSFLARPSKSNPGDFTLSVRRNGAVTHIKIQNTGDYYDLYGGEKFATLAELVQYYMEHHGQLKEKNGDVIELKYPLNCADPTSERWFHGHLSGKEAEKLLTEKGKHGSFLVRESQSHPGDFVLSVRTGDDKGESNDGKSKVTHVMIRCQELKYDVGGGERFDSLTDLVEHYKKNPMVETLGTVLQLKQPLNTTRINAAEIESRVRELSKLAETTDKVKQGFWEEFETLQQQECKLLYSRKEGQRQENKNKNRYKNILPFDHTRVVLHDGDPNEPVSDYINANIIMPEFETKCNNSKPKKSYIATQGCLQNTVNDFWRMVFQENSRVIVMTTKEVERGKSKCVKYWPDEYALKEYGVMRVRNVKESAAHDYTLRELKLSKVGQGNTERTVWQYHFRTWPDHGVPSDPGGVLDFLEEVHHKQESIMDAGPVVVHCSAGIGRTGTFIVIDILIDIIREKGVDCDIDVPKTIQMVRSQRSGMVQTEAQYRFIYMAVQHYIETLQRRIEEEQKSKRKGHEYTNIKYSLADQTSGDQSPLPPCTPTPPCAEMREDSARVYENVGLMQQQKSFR
Kind of experiment: Degradation activity on SHP2 protein in MIA Paca-2 cells (Western blot, DC50). It is filed as cell-based. On the set-up: endogenous in cells; host or cells: MIA Paca-2 cells. To be noted: read-out: Degradation activity for differenct cell lines MIA Paca-2 (DC50). The protocol: (1) MV-411 cells were cultured in the cell culture medium, and then well-growing cells were selected and inoculated in a 12-well plate, with 1 mL/well and 1×10^6 cells/well. The plate was incubated overnight in a 5% CO2 cell incubator at 37° C.
(2) 10 mM storage solution of each drug was prepared using dimethylsulfoxide (DMSO). The stock solution was diluted gradually with DMSO before use, and then 1 μL of the compound solution was added to the cell culture well (to ensure that the DMSO concentration in the culture system was […]), so that the final drug concentration is 100 nM, 10 nM, 3 nM, 1 nM, 0.3 nM, and 0.1 nM. Two wells were set for each concentration. The plate was gently shaken and mixed. Additionally, negative control wells (containing an equal amount of DMSO) and positive control wells were included.
(3) After 24 hours of cultivation, the cells were lysed using RIPA cell lysate, and the proteins were extracted. The protein concentration was measured using a BCA assay kit. 5× concentrated protein buffer was loaded, heated at 100° C. for 5 min, and then the sample was stored at −20° C.
(4) For each well, 30 μg of protein was loaded to polyacrylamide gel for electrophoresis.
(5) The protein was transferred from polyacrylamide gel to PVDF membrane, and sealed at room temperature with 5% skimmed milk for 1 h, which was then incubated with the primary antibodies (Anti-SHP2 rabbit mAb and Anti-GAPDH rabbit mAb) at 4° C. overnight. The membrane was washed three times with TBST solution, 10 minutes for each time. After that, the membrane was incubated with the secondary antibodies (horseradish peroxidase labeled goat anti-rabbit IgG) at room temperature for 2 h, and then washed three times with TBST solution, 10 minutes for each time, followed by exposure.
(6) The images were analyzed with Image J grayscale, and the degradation ratio of protein bands in the test group was calculated, based on the negative control group (DMSO) (100%).
(7) Using the Dose-response-inhibition equation in the data processing software GraphPad Prism 8, the DC50 value was obtained (which represents the drug concentration corresponding to 50% degradation of the target protein).
Using similar methods and different cell lines, the degradation activity of the compound according to the present invention on SHP2 protein of different cell lines was tested under suitable culture conditions.
A general note: Immunoblotting shows a protein as a band on a membrane.

Bounds are passed on as bounds.

What is called DC50 is the midpoint of the concentration-degradation curve.

Take `O=C1CCC(N2Cc3cc(CNC(=O)c4ccc(N5CCC6(CN(CCCCCCC(=O)Nc7cccc(Sc8cnc(N9CCCCC9)cn8)c7)C6)C5)nn4)ccc3C2=O)C(=O)N1` (stereo not drawn) [Compound 212]: the DC50 is above 1000 nM. As for `C[C@@H]1OCC2(CCN(c3cnc(Sc4cccc(NCc5ccc(CN6CCN(c7ccc8c(c7)CN(C7CCC(=O)NC7=O)C8=O)CC6)cc5)c4)cn3)CC2)[C@@H]1N` (stereo partly drawn) [Compound 255], the figure is above 1000 nM; as for `CC1(N)CCN(c2cnc(Sc3cccc(NC(=O)c4ccc(N5CCC(N6CC=C(c7cnc(C(=O)NCc8ccc9c(c8)CN(C8CCC(=O)NC8=O)C9=O)c(F)c7)CC6)CC5)nc4)c3)cn2)CC1` (stereo not drawn) [Compound 428], 100 to 1000 nM. Then `C[C@@H]1OCC2(CCN(c3cnc(Sc4cccc(NC(=O)C5CC6(C5)CC(N5CC=C(c7ccc(C(=O)NCc8ccc9c(c8)CN(C8CCC(=O)NC8=O)C9=O)nc7)CC5)C6)c4)cn3)CC2)[C@@H]1N` (stereo partly drawn) [Compound 473], with below 100 nM. Take `COCC1(N)CCN(c2cnc(Sc3cccc(NC(=O)c4ccc(N5CCC(N6CC=C(c7ccc(C(=O)NCc8ccc9c(c8)CN(C8CCC(=O)NC8=O)C9=O)nn7)CC6)CC5)cc4)c3)cn2)CC1` (stereo not drawn) [Compound 433]: the DC50 is above 1000 nM.

Take `CC1(N)CCN(c2cnc(Sc3cccc(NC(=O)c4ccc(N5CCC(N6CCN(c7ccc(C(=O)NCc8ccc9c(c8)CN(C8CCC(=O)NC8=O)C9=O)nc7)CC6)CC5)nc4)c3)cn2)CC1` (stereo not drawn) [Compound 436]: the DC50 lay within 100 to 1000 nM. Then `CC1(N)CCN(c2cnc(Sc3cccc(NC(=O)CCCCN4CCC(N5CCN(c6ccc(C(=O)NCc7ccc8c(c7)CN(C7CCC(=O)NC7=O)C8=O)nn6)CC5C(F)(F)F)C4)c3)cn2)CC1` (stereo not drawn) [Compound 267], with below 100 nM; and `CC1(N)CCN(c2cnc(Sc3cccc(NC(=O)c4ccc(N5CCC(N6CC=C(c7ccc(C(=O)NCc8ccc9c(c8)CN(C8CCC(=O)NC8=O)C9=O)nn7)CC6)CC5)c(F)c4)c3)cn2)CC1` (stereo not drawn) [Compound 329], with below 100 nM; and `C[C@@H]1OCC2(CCN(c3cnc(Sc4cccc(NC(=O)c5ccc(N6CCC(N7CC=C(c8ccc(C(=O)NCc9ccc%10c(c9)CN(C9CCC(=O)NC9=O)C%10=O)c(F)n8)CC7)CC6)c(F)c5)c4)cn3)CC2)[C@@H]1N` (stereo partly drawn) [Compound 472], with 100 to 1000 nM. Consider `CC1(N)CCN(c2cnc(Sc3cccc(NC(=O)c4ccc(N5CCC(N6CC=C(c7ccc(C(=O)Nc8ccc9c(c8)CN(C8CCC(=O)NC8=O)C9=O)nc7)CC6)CC5)nc4)c3)cn2)CC1` (stereo not drawn) [Compound 325], for which the DC50 was below 100 nM. As for `C[C@@H]1OCC2(CCN(c3cnc(Sc4cccc(NC(=O)c5ccc(N6CCC(N7CCN(c8ccc9c(c8)C(=O)N(C8CCC(=O)NC8=O)C9=O)CC7)CC6)c(F)c5)c4)cn3)CC2)[C@@H]1N` (stereo partly drawn) [Compound 279], the figure is above 1000 nM. As for `CC1(N)CCN(c2cnc(Sc3cccc(NC(=O)CCN4CC=C(c5ccc(C(=O)NCc6ccc7c(c6)CN(C6CCC(=O)NC6=O)C7=O)nc5)C(C)(C)C4)c3)cn2)CC1` (stereo not drawn) [Compound 274], the figure is above 1000 nM. Then `CC1(N)CCN(c2cnc(Sc3cccc(NCc4ccc(N5CCN(c6ccc(C(=O)NCc7ccc8c(c7)C(=O)N(C7CCC(=O)NC7=O)C8)nn6)CC5)c(F)c4)c3)cn2)CC1` (stereo not drawn) [Compound 258], with above 1000 nM; and `CC1(N)CCN(c2cnc(Sc3cccc(NC(=O)c4ccc(N5CCC(N6CCN(c7cnc(C(=O)NCc8ccc9c(c8)CN(C8CCC(=O)NC8=O)C9=O)cc7Cl)CC6)CC5)cc4F)c3)cn2)CC1` (stereo not drawn) [Compound 497], with below 100 nM; and `CC1(N)CCN(c2cnc(Sc3cccc(NC(=O)c4ccc(CN5CCN(c6ccc7c(c6)CN(C6CCC(=O)NC6=O)C7=O)CC5)cc4)c3)cn2)CC1` (stereo not drawn) [Compound 286], with above 1000 nM.

`CC1(N)CCN(c2cnc(Sc3cccc(NC(=O)C4CCC(N5CC=C(c6ccc(C(=O)NCc7ccc8c(c7)CN(C7CCC(=O)NC7=O)C8=O)nc6)CC5)CC4)c3)cn2)CC1` (single isomer, unassigned) [Compound 300]: the DC50 was above 1000 nM. Then `CC1(N)CCN(c2cnc(Sc3cccc(NC(=O)C4CCC(N5CC=C(c6ccc(C(=O)N7CCN(c8ccc9c(c8)CN(C8CCC(=O)NC8=O)C9=O)CC7)nc6)CC5)CC4)c3)cn2)CC1` (stereo not drawn) [Compound 305], with above 1000 nM. As for `CC1(N)CCN(c2cnc(Sc3cccc(NC(=O)c4ccc(C5=CCC(N6CC=C(c7ccc(C(=O)NCc8ccc9c(c8)CN(C8CCC(=O)NC8=O)C9=O)nn7)CC6)CC5)cc4)c3)cn2)CC1` (stereo not drawn) [Compound 368], the figure is below 100 nM; as for `CC1(N)CCN(c2cnc(Sc3cccc(NC(=O)c4ccc(N5CCC(N6CCN(c7cnc(C(=O)NCc8ccc9c(c8)CN(C8CCC(=O)NC8=O)C9=O)cc7Cl)CC6)CC5)c(F)c4)c3)cn2)CC1` (stereo not drawn) [Compound 496], below 100 nM. Then `CC1(N)CCN(c2cnc(Sc3cccc(NC(=O)c4ccc(N5CCC(C(=O)N6CCN(c7ccc8c(c7)CN(C7CCC(=O)NC7=O)C8=O)CC6)CC5)c(F)c4)c3)cn2)CC1` (stereo not drawn) [Compound 335], with above 1000 nM; and `CC(=O)NC1(C)CCN(c2cnc(Sc3cccc(NC(=O)c4ccc(N5CCC(N6CC=C(c7ccc(C(=O)NCc8ccc9c(c8)CN(C8CCC(=O)NC8=O)C9=O)nc7)CC6)CC5)c(F)c4)c3)cn2)CC1` (stereo not drawn) [Compound 425], with above 1000 nM.

In the case of `CC1(N)CCN(c2cnc(Sc3cccc(NC(=O)c4ccc(N5CCC(N6CCN(c7ccc8c(c7)CN(C7CCC(=O)NC7=O)C8=O)CC6)CC5)c(F)c4)c3)cn2)CC1` (stereo not drawn) [Compound 278], the DC50 was above 1000 nM. Then `CC1(N)CCN(c2cnc(Sc3cccc(NC(=O)c4ccc(-c5ccc(N6CCC(C7=CCC(C(=O)NCc8ccc9c(c8)CN(C8CCC(=O)NC8=O)C9=O)CC7)CC6)cc5)cc4)c3)cn2)CC1` (stereo not drawn) [Compound 423], with above 1000 nM; and `CC1(N)CCN(c2cnc(Sc3cccc(NC(=O)C4CC45CCN(C4CCN(c6ccc(C(=O)NCc7ccc8c(c7)CN(C7CCC(=O)NC7=O)C8=O)nn6)CC4)CC5)c3)cn2)CC1` (stereo not drawn) [Compound 290], with above 1000 nM; and `CC1(N)CCN(c2cnc(Sc3cccc(NC(=O)c4ccc(CN5CCN(c6ccc7c(c6)C(=O)N(C6CCC(=O)NC6=O)C7=O)CC5)cc4)c3)cn2)CC1` (stereo not drawn) [Compound 288], with above 1000 nM. Consider `CC1(N)CCN(c2cnc(Sc3cccc(NC(=O)c4ccc(N5CCC(N6CC=C(c7ccc(C(=O)N8CCN(c9ccc%10c(c9)CN(C9CCC(=O)NC9=O)C%10=O)CC8)nc7)C(C)(C)C6)CC5)cc4)c3)cn2)CC1` (stereo not drawn) [Compound 304], for which the DC50 is below 100 nM. As for `C[C@@H]1OCC2(CCN(c3cnc(Sc4cccc(NCc5ccc(N6CCC(N7CC=C(c8ccc(C(=O)NCc9ccc%10c(c9)CN(C9CCC(=O)NC9=O)C%10=O)nc8Cl)CC7)CC6)c(F)c5)c4)cn3)CC2)[C@@H]1N` (stereo partly drawn) [Compound 518], the figure is 100 to 1000 nM; as for `C[C@@H]1OCC2(CCN(c3cnc(Sc4cccc(NC(=O)c5ccc(N6CCC(N7CC=C(c8ccc(C(=O)NCc9ccc%10c(c9)CN(C9CCC(=O)NC9=O)C%10=O)nc8Cl)CC7)CC6)c(F)c5)c4)cn3)CC2)[C@@H]1N` (stereo partly drawn) [Compound 463], above 1000 nM. Then `C[C@@H]1OCC2(CCN(c3cnc(Sc4cccc(NC(=O)c5ccc(N6CCC(N7CC=C(c8ccc(C(=O)NCc9ccc%10c(c9)CN(C9CCC(=O)NC9=O)C%10=O)nc8)CC7)CC6)cc5)c4)cn3)CC2)[C@@H]1N` (stereo partly drawn) [Compound 411], with below 100 nM; and `CC1(N)CCN(c2cnc(Sc3cccc(NC(=O)C4CCC(N5CCC(N6CC=C(c7ccc(C(=O)NCc8ccc9c(c8)CN(C8CCC(=O)NC8=O)C9=O)nn7)CC6)CC5)CC4)c3)cn2)CC1` (stereo not drawn) [Compound 339], with below 100 nM.
